Assay results as given in patent US5698444A (Eli Lilly and Company, priority 1993, dated 1997).
Like-named read-outs stand apart in the source and are kept apart here.

Molecular target: T1, human 5-HT2B receptor (Homo sapiens, UniProt P41595)
T1 construct: expressed in transfected cells
Assay: competition assay: inhibition of binding of [3H]5-hydroxytryptamine to the cloned human 5-HT2B receptor (cell membranes)

T1 sequence (P41595 whole entry): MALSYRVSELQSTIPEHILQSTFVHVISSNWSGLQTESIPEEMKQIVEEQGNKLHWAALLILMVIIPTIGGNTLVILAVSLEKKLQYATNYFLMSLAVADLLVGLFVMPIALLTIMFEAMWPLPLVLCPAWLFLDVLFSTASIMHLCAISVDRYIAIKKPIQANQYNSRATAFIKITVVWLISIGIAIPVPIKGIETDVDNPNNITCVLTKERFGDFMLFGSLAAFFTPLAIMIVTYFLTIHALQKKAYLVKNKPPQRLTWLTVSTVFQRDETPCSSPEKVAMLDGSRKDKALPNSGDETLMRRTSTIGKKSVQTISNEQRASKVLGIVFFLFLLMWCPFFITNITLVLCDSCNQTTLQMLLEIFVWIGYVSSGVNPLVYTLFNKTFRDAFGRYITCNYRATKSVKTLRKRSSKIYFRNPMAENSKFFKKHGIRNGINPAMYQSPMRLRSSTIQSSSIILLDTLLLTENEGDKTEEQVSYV

Row | Compound | IC50 [µM] | IC50 (read-out: IC50 (concentration which displaces or inhibits the binding of 50% of the labeled 5-hydroxytryptamine)) [µM]
1 | c1ccc2c(N3CCNCC3)cccc2c1 [1-(1-naphthyl)piperazine, 1-(1-Naphthyl)piperazine] | 0.00241 | –
2 | CC(N)Cc1c[nH]c2ccc(O)cc12 (stereo not drawn) [α-methyl-5-hydroxytryptamine, 3-(2-aminopropyl)-1H-indol-5-ol] | 0.0118 | –
3 | O=C(CCCN1CCC2(CC1)C(=O)NCN2c1ccccc1)c1ccc(F)cc1 [spiperone, 8-[4-(4-fluorophenyl)4-oxobutyl]-1-phenyl-1,3,8-triazaspiro[4,5]decan-4-one] | – | 0.691
